The assay addresses T1, SIRT1 (Homo sapiens, UniProt Q96EB6).
T1 sequence (Q96EB6 1-747): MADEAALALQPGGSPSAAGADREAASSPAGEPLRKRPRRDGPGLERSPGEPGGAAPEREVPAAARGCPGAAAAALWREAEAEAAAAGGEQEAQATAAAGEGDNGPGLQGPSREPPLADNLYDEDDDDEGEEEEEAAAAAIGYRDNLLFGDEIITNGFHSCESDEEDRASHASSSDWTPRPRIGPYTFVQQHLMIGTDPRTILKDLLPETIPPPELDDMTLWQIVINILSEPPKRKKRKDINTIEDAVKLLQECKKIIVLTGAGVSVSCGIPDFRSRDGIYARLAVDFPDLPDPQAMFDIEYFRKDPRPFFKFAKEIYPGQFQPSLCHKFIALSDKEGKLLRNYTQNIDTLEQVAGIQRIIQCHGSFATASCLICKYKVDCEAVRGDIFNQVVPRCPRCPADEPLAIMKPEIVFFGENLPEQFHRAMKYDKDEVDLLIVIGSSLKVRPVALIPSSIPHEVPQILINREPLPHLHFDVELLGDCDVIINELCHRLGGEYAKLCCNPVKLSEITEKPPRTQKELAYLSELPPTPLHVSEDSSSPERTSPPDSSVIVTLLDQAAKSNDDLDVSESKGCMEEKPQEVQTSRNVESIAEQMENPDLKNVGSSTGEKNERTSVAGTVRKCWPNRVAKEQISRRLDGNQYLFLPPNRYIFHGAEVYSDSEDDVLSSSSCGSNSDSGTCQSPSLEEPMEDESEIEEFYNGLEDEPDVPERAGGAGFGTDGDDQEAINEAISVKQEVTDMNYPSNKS
As to the kind of experiment: Mass spectrometry based SIRT1 deacetylase activation assay (acetylated p53-derived peptide substrate). The format is biochemical. From the text:
A mass spectrometry based assay was used to identify modulators of SIRT1 activity. The mass spectrometry based assay utilizes a peptide having 20 amino acid residues as follows: Ac-EE-K(biotin)-GQSTSSHSK(Ac)NleSTEG-K(5TMR)-EE-NH2 (SEQ ID NO: 1) wherein K(Ac) is an acetylated lysine residue and Nle is a norleucine. The peptide is labeled with the fluorophore 5TMR (excitation 540 nm/emission 580 nm) at the C-terminus. The sequence of the peptide substrate is based on p53 with several modifications. In addition, the methionine residue naturally present in the sequence was replaced with the norleucine because the methionine may be susceptible to oxidation during synthesis and purification.
The mass spectrometry assay is conducted as follows: 0.5 μM peptide substrate and 120 μM βNAD^+ is incubated with 10 nM SIRT1 for 25 minutes at 25° C. in a reaction buffer (50 mM Tris-acetate pH 8, 137 mM NaCl, 2.7 mM KCl, 1 mM MgCl2, 5 mM DTT, 0.05% BSA). Test compounds may be added to the reaction as described above. […] After the 25 minute incubation with SIRT1, 10 μL of 10% formic acid is added to stop the reaction. Reactions are sealed and frozen for later mass spec analysis. Determination of the mass of the substrate peptide allows for precise determination of the degree of acetylation (i.e. starting material) as compared to deacetylated peptide (product).
A control for inhibition of sirtuin activity is conducted by adding 1 μL of 500 mM nicotinamide as a negative control at the start of the reaction (e.g., permits determination of maximum sirtuin inhibition). A control for activation of sirtuin activity is conducted using 10 nM of sirtuin protein, with 1 μL of DMSO in place of compound, to determine the amount of deacetylation of the substrate at a given timepoint within the linear range of the assay. This timepoint is the same as that used for test compounds and, within the linear range, the endpoint represents a change in velocity.
For the above assay, SIRT1 protein was expressed and purified as follows. […] The protein was expressed by induction with 1 mM IPTG as an N-terminal His-tag fusion protein at 18° C. overnight and harvested at 30,000×g. Cells were lysed with lysozyme in lysis buffer (50 mM Tris-HCl, 2 mM Tris[2-carboxyethyl]phosphine (TCEP), 10 μM ZnCl2, 200 mM NaCl) and further treated with sonication for 10 min for complete lysis. The protein was purified over a Ni-NTA column (Amersham) and fractions containing pure protein were pooled, concentrated and run over a sizing column (Sephadex S200 26/60 global). The peak containing soluble protein was collected and run on an Ion-exchange column (MonoQ). Gradient elution (200 mM-500 mM NaCl) yielded pure protein. This protein was concentrated and dialyzed against dialysis buffer (20 mM Tris-HCl, 2 mM TCEP) overnight. The protein was aliquoted and frozen at −80° C. until further use.
Sirtuin modulating compounds that activated SIRT1 were identified using the assay described above and are shown below in Table 1. The EC1.5 values for the activating compounds are represented by A (EC1.5<1.0 uM), B (EC1.5 1-25 uM), C (EC1.5 >25 uM). The percent maximum fold activation is represented by A (Fold activation >200%) or B (Fold Activation <200%).

Setting [1] is: 0.5 μM peptide substrate, 120 μM βNAD+, 10 nM SIRT1, 25 min at 25° C.
The mark [2] stands for this setting: 0.5 μM peptide substrate, 120 μM βNAD+, 10 nM SIRT1, 25 min at 25° C., read-out: EC1.5.
[3] abbreviates: 0.5 μM peptide substrate, 120 μM βNAD+, 10 nM SIRT1, 25 minutes at 25° C.

28 compounds from patent US8846947B2, “Benzimidazoles and related analogs as sirtuin modulators” (GlaxoSmithKline LLC, priority 2008, dated 2014) can be followed below.

SMILES strings stand for the structures. Read-outs that look alike come from different tables or passages of the source.

As to `O=C(Nc1cccnn1)c1cccc2[nH]c(-c3cccc(N4CCOCC4)c3)nc12` [Compound 470], the “Fold Act. (percent maximum fold activation)” value under setting [1] is “A (Fold activation >200%)”. Moreover, under setting [2], the EC1.5 was in the range of 1000 to 25000 nM.

`Cc1cnc(NC(=O)c2cccc3[nH]c(-c4ccnn4-c4ccccc4)nc23)s1` [Compound 381]: the EC1.5 result is given as “A (EC1.5<1.0 uM)” and the “Fold Act. (percent maximum fold activation)” value was “A (Fold activation >200%)”.

As for `O=C(Nc1cccnc1)c1cccc2[nH]c(-c3ccc(N4CC[C@H](F)C4)cc3C(F)(F)F)nc12` [Compound 574], under setting [1], the “Fold Act. (percent maximum fold activation)” value is given as “A (Fold activation >200%)”. For the same compound, the EC1.5 under setting [2] is less than 1000 nM.

On to `O=C(Nc1nc(CN2CCOCC2)cs1)c1cccc2[nH]c(-c3cc(F)cc(F)c3)nc12` [Compound 820], for which, under setting [3], the EC1.5 entry is listed as “B (EC1.5 1-25 uM)” and the “Fold Act. (percent maximum fold activation)” value is “A (Fold activation >200%)”.

On to `O=C(N[C@H]1CCNC1)c1cccc2[nH]c(-c3cccc(C(F)(F)F)c3)nc12` [Compound 301], for which the EC1.5 entry is “C (EC1.5 >25 uM)” and the “Fold Act. (percent maximum fold activation)” value is given as “B (Fold Activation <200%)”.

In the case of `O=C(NC1CCOCC1)c1cccc2[nH]c(-c3ccc(Cl)cc3C(F)(F)F)nc12` [Compound 434], the “Fold Act. (percent maximum fold activation)” value under setting [1] is listed as “B (Fold Activation <200%)”. Moreover, the EC1.5 under setting [2] was in the range of 1000 to 25000 nM.

Consider `O=C(Nc1ccccc1)c1cccc2[nH]c(-c3ccc(Cl)cc3C(F)(F)F)nc12` [Compound 754], for which, under setting [3], the EC1.5 entry was “A (EC1.5<1.0 uM)” and the “Fold Act. (percent maximum fold activation)” value is given as “A (Fold activation >200%)”.

With `O=C(Nc1ccccn1)c1cccc2[nH]c(-c3cc(N4CC[C@H](F)C4)ccc3C(F)(F)F)nc12` [Compound 666], under setting [3], the EC1.5 entry is “B (EC1.5 1-25 uM)” and the “Fold Act. (percent maximum fold activation)” value was “B (Fold Activation <200%)”.

Regarding `O=C(Nc1ccncc1)c1cccc2[nH]c(-c3ccnn3-c3ccccc3)nc12` [Compound 310], the EC1.5 result is listed as “A (EC1.5<1.0 uM)” and the “Fold Act. (percent maximum fold activation)” value is “A (Fold activation >200%)”.

On to `O=C(Nc1cccnc1)c1cncc2[nH]c(-c3ccc(Cl)cc3C(F)(F)F)nc12` [Compound 650], for which, under setting [3], the EC1.5 entry was “A (EC1.5<1.0 uM)” and the “Fold Act. (percent maximum fold activation)” value was “A (Fold activation >200%)”.

As to `O=C(Nc1ccccn1)c1cccc2[nH]c(-c3ccc(OC4CCNCC4)cc3)nc12` [Compound 535], the “Fold Act. (percent maximum fold activation)” value under setting [1] is “A (Fold activation >200%)”. Also, the EC1.5 under setting [2] was less than 1000 nM.

`O=C(Nc1cccnc1)c1cccc2[nH]c(-c3cccc(CN4CCOCC4)c3)nc12` [Compound 350]: the EC1.5 entry is on record as “B (EC1.5 1-25 uM)” and the “Fold Act. (percent maximum fold activation)” value is “A (Fold activation >200%)”.

Consider `O=C(Nc1nccs1)c1cccc2[nH]c(-c3c(F)cccc3Cl)nc12` [Compound 266], for which the EC1.5 result is reported as “B (EC1.5 1-25 uM)” and the “Fold Act. (percent maximum fold activation)” value is “A (Fold activation >200%)”.

With `O=C(Nc1ncccn1)c1cccc2[nH]c(-c3cccc(C(F)(F)F)c3)nc12` [Compound 241], the EC1.5 entry is listed as “C (EC1.5 >25 uM)” and the “Fold Act. (percent maximum fold activation)” value is recorded as “B (Fold Activation <200%)”.

For the compound `CC(C)N1CCN(CCOc2ccccc2-c2nc3c(C(=O)Nc4ccccn4)cccc3[nH]2)CC1` [Compound 486], under setting [1], the “Fold Act. (percent maximum fold activation)” value is recorded as “A (Fold activation >200%)”. For the same compound, the EC1.5 under setting [2] is 1000 to 25000 nM.

As to `O=C(Nc1nccs1)c1cccc2[nH]c(-c3ccco3)nc12` [Compound 249], the EC1.5 entry is given as “B (EC1.5 1-25 uM)” and the “Fold Act. (percent maximum fold activation)” value is reported as “A (Fold activation >200%)”.

Consider `O=C(Nc1ccc(CN2CCOCC2)nc1)c1cccc2[nH]c(-c3ccc(Cl)cc3C(F)(F)F)nc12` [Compound 684], for which, under setting [3], the EC1.5 result is given as “A (EC1.5<1.0 uM)” and the “Fold Act. (percent maximum fold activation)” value was “A (Fold activation >200%)”.

For `O=C(Nc1ccccn1)c1cccc2[nH]c(-c3ccc(F)cc3C(F)F)nc12` [Compound 561], the “Fold Act. (percent maximum fold activation)” value under setting [1] is given as “A (Fold activation >200%)”. Moreover, under setting [2], the EC1.5 is less than 1000 nM.

On to `O=C(Nc1ccccn1)c1cccc2[nH]c(-c3ccc(Cl)cc3C(F)F)nc12` [Compound 564], for which, under setting [1], the “Fold Act. (percent maximum fold activation)” value is “A (Fold activation >200%)”. Also, the EC1.5 under setting [2] was 1000 to 25000 nM.

As for `O=C(Nc1cccc(OC2CCNC2)c1)c1cccc2[nH]c(-c3cc(F)ccc3C(F)(F)F)nc12` (centres unmarked) [Compound 524], the “Fold Act. (percent maximum fold activation)” value under setting [1] is on record as “A (Fold activation >200%)”. In addition, under setting [2], the EC1.5 was less than 1000 nM.

For `O=C(Nc1nccs1)c1cccc2[nH]c(-c3ccc4ccccc4c3)nc12` [Compound 228], the EC1.5 result was “B (EC1.5 1-25 uM)” and the “Fold Act. (percent maximum fold activation)” value is listed as “A (Fold activation >200%)”.

As to `O=C(Nc1cccc2[nH]c(-c3ccccc3C(F)(F)F)nc12)c1cnccn1` [Compound 366], the EC1.5 entry is listed as “B (EC1.5 1-25 uM)” and the “Fold Act. (percent maximum fold activation)” value is “A (Fold activation >200%)”.

As to `O=C(Nc1cccc(OC[C@H](O)CO)c1)c1cncc2[nH]c(-c3ccccc3C(F)(F)F)nc12` [Compound 748], under setting [3], the EC1.5 entry is on record as “A (EC1.5<1.0 uM)” and the “Fold Act. (percent maximum fold activation)” value is listed as “A (Fold activation >200%)”.

For the compound `O=C(Nc1nccs1)c1cccc2[nH]c(-c3ccccc3OCCN3CCC(F)(F)C3)nc12` [Compound 614], under setting [3], the EC1.5 result is “C (EC1.5 >25 uM)” and the “Fold Act. (percent maximum fold activation)” value is on record as “B (Fold Activation <200%)”.

Regarding `C[C@@H]1CN(c2cccc(-c3nc4c(C(=O)Nc5nccs5)cccc4[nH]3)c2)C[C@H](C)O1` [Compound 576, 2-(3-(2,6-dimethylmorpholino)phenyl)-N-(thiazol-2-yl)-1H-benzo[d]imidazole-4-carboxamide], the “Fold Act. (percent maximum fold activation)” value under setting [1] is listed as “A (Fold activation >200%)”. For the same compound, the EC1.5 under setting [2] was less than 1000 nM.

Consider `COCCN1CCN(c2cccc(-c3nc4c(C(=O)Nc5nccs5)cccc4[nH]3)c2)CC1` [Compound 710], for which, under setting [3], the EC1.5 entry is recorded as “A (EC1.5<1.0 uM)” and the “Fold Act. (percent maximum fold activation)” value is listed as “A (Fold activation >200%)”.

Consider `Cc1nc(-c2ccccc2)c(-c2nc3c(C(=O)Nc4cccnc4)cccc3[nH]2)s1` [Compound 370], for which the EC1.5 result is listed as “A (EC1.5<1.0 uM)” and the “Fold Act. (percent maximum fold activation)” value was “A (Fold activation >200%)”.

As for `CC1(C)CN(c2ccc(C(F)(F)F)c(-c3nc4c(C(=O)Nc5nccs5)cccc4[nH]3)c2)CCO1` [Compound 708], under setting [3], the EC1.5 entry is given as “A (EC1.5<1.0 uM)” and the “Fold Act. (percent maximum fold activation)” value is “A (Fold activation >200%)”.
